Test results published in patent publication US20100056627A1, “PHARMACEUTICAL COMPOSITIONS OF ALKYL GALLATES” (priority 2006, published 2010).
Where two headings read alike, the source gives them in different places.

How the values were obtained:
clinical isolate MRSA = assay: Oxacillin MIC against MRSA with concomitant octyl gallate and short-chain alkyl gallate (β-lactam sensitivity, ILSMR effect); format: cell-based, Staphylococcus aureus
herpes virus (HSV-1) = assay: Virucidal activity against HSV-1 (Tables 14, 15, FIG. 5); format: cell-based
[1] = tested on: gram-positive and gram-negative bacteria; assay: MIC (minimum growth inhibition concentration), 2-fold serial agar plate dilution on Mueller Hinton II Agar, with concomitant alkyl gallate and salt; settings: for MIC: 24 h
[2] = clinical isolate MRSA, Isoamyl gallate 6.25
[3] = clinical isolate MRSA, Isoamyl gallate 12.5
[4] = clinical isolate MRSA, Isoamyl gallate 25
[5] = clinical isolate MRSA, Propyl gallate 6.25
[6] = clinical isolate MRSA, Propyl gallate 12.5
[7] = clinical isolate MRSA, Propyl gallate 25
[8] = clinical isolate MRSA, short-chain alkyl gallate None

CCCCCCCCOC(=O)c1cc(O)c(O)c(O)c1 [octyl gallate]
octyl gallate concentration with growth inhibitory effect in all the bacterial strains with only octyl gallate (clinical isolate MRSA; clinical isolate MRSA): 25 µg/mL | Concentration of octyl gallate for concomitant use necessary for obtaining oxacillin MIC not higher than 2 μg/mL, C50 (clinical isolate MRSA; [2]): >12.5 µg/mL | Concentration of octyl gallate for concomitant use necessary for obtaining oxacillin MIC not higher than 2 μg/mL, C100 (clinical isolate MRSA; [2]): >12.5 µg/mL | Concentration of octyl gallate for concomitant use necessary for obtaining oxacillin MIC not higher than 2 μg/mL, C50 (clinical isolate MRSA; [3]): >12.5 µg/mL | Concentration of octyl gallate for concomitant use necessary for obtaining oxacillin MIC not higher than 2 μg/mL, C100 (clinical isolate MRSA; [3]): >12.5 µg/mL | Concentration of octyl gallate for concomitant use necessary for obtaining oxacillin MIC not higher than 2 μg/mL, C50 (clinical isolate MRSA; [4]): 1.56 µg/mL | Concentration of octyl gallate for concomitant use necessary for obtaining oxacillin MIC not higher than 2 μg/mL, C100 (clinical isolate MRSA; [4]): 1.56 µg/mL | Concentration of octyl gallate for concomitant use necessary for obtaining oxacillin MIC not higher than 2 μg/mL, Range (clinical isolate MRSA; [4]): 1.56 µg/mL | Concentration of octyl gallate for concomitant use necessary for obtaining oxacillin MIC not higher than 2 μg/mL, C50 (clinical isolate MRSA; [5]): >12.5 µg/mL | Concentration of octyl gallate for concomitant use necessary for obtaining oxacillin MIC not higher than 2 μg/mL, C100 (clinical isolate MRSA; [5]): >12.5 µg/mL | Concentration of octyl gallate for concomitant use necessary for obtaining oxacillin MIC not higher than 2 μg/mL, C50 (clinical isolate MRSA; [6]): >12.5 µg/mL | Concentration of octyl gallate for concomitant use necessary for obtaining oxacillin MIC not higher than 2 μg/mL, C100 (clinical isolate MRSA; [6]): >12.5 µg/mL | Concentration of octyl gallate for concomitant use necessary for obtaining oxacillin MIC not higher than 2 μg/mL, Range (clinical isolate MRSA; [6]): 6.25 to 12.5 µg/mL | Concentration of octyl gallate for concomitant use necessary for obtaining oxacillin MIC not higher than 2 μg/mL, C50 (clinical isolate MRSA; [7]): 3.13 µg/mL | Concentration of octyl gallate for concomitant use necessary for obtaining oxacillin MIC not higher than 2 μg/mL, C100 (clinical isolate MRSA; [7]): 6.25 µg/mL | Concentration of octyl gallate for concomitant use necessary for obtaining oxacillin MIC not higher than 2 μg/mL, Range (clinical isolate MRSA; [7]): 1.56 to 6.25 µg/mL | Concentration of octyl gallate for concomitant use necessary for obtaining oxacillin MIC not higher than 2 μg/mL, C50 (clinical isolate MRSA; [8]): 25 µg/mL | Concentration of octyl gallate for concomitant use necessary for obtaining oxacillin MIC not higher than 2 μg/mL, C100 (clinical isolate MRSA; [8]): 25 µg/mL | Concentration of octyl gallate for concomitant use necessary for obtaining oxacillin MIC not higher than 2 μg/mL, Range (clinical isolate MRSA; [8]): 25 µg/mL | octyl gallate concentration at which a decrease of the MIC value of oxacillin to MRSA occurs (clinical isolate MRSA; in the coexistence of propyl gallate or isoamyl gallate): 1.56 µg/mL | Concentration of octyl gallate for concomitant use for oxacillin MIC of 2 μg/mL or lower, 100% of MRSA strains (C100) (clinical isolate MRSA; isoamyl gallate coexisting at 25 μg/mL): 1.56 µg/mL | Concentration of octyl gallate for concomitant use for oxacillin MIC of 2 μg/mL or lower, 100% of MRSA strains (C100) (clinical isolate MRSA; propyl gallate coexisting at 25 μg/mL): 6.25 µg/mL | octyl gallate concentration at which an ILSMR effect was confirmed (clinical isolate MRSA; several bacterial strains, oxacillin with octyl gallate): 12.5 µg/mL | No of plaques (herpes virus (HSV-1); Table 14, octyl gallate 10 mg/L, J1816 30 mg/L, Na3citrate 0.90%): 0 | No of plaques (herpes virus (HSV-1); Table 14, octyl gallate 10 mg/L, propyl gallate 300 mg/L, J1816 120 mg/L, Na3citrate 0.90%): 0 | No of plaques (herpes virus (HSV-1); Table 14, octyl gallate 20 mg/L, J1816 60 mg/L, Na3citrate 0.90%): 0 | No of plaques (herpes virus (HSV-1); Table 14, octyl gallate 20 mg/L, propyl gallate 300 mg/L, J1816 150 mg/L, Na3citrate 0.90%): 0 | No of plaques (herpes virus (HSV-1); Table 14, octyl gallate 30 mg/L, J1816 90 mg/L, Na3citrate 0.90%): 0 | No of plaques (herpes virus (HSV-1); Table 14, octyl gallate 30 mg/L, propyl gallate 300 mg/L, J1816 180 mg/L, Na3citrate 0.90%): 0 | No of plaques (herpes virus (HSV-1); Table 14, octyl gallate 60 mg/L, J1816 180 mg/L, Na3citrate 0.90%): 0 | No of plaques (herpes virus (HSV-1); Table 14, octyl gallate 60 mg/L, J1816 180 mg/L, Na3citrate not given): 0 | No of plaques (herpes virus (HSV-1); Table 14, octyl gallate 60 mg/L, propyl gallate 300 mg/L, J1816 270 mg/L, Na3citrate 0.90%): 0 | No of plaques (herpes virus (HSV-1); Table 14, octyl gallate 100 mg/L, J1816 300 mg/L, Na3citrate 0.90%): 0 | No of plaques (herpes virus (HSV-1); Table 14, octyl gallate 100 mg/L, propyl gallate 300 mg/L, J1816 390 mg/L, Na3citrate 0.90%): 0 | No of plaques (herpes virus (HSV-1); Table 15, octyl gallate 10 mg/L, J1816 0, NaCitrate 0.90%): 48 | No of plaques (herpes virus (HSV-1); Table 15, octyl gallate 10 mg/L, propyl gallate 300 mg/L, J1816 0, NaCitrate 0.90%): 11 | No of plaques (herpes virus (HSV-1); Table 15, octyl gallate 20 mg/L, J1816 0, NaCitrate 0.90%): 0 | No of plaques (herpes virus (HSV-1); Table 15, octyl gallate 20 mg/L, propyl gallate 300 mg/L, J1816 0, NaCitrate 0.90%): 0 | No of plaques (herpes virus (HSV-1); Table 15, octyl gallate 30 mg/L, J1816 0, NaCitrate 0.90%): 0 | No of plaques (herpes virus (HSV-1); Table 15, octyl gallate 30 mg/L, propyl gallate 300 mg/L, J1816 0, NaCitrate 0.90%): 0 | No of plaques (herpes virus (HSV-1); Table 15, octyl gallate 60 mg/L, J1816 0, NaCitrate 0.90%): 0 | No of plaques (herpes virus (HSV-1); Table 15, octyl gallate 60 mg/L, propyl gallate 300 mg/L, J1816 0, NaCitrate 0.90%): 0 | No of plaques (herpes virus (HSV-1); Table 15, octyl gallate 100 mg/L, J1816 0, NaCitrate 0.90%): 0 | No of plaques (herpes virus (HSV-1); Table 15, octyl gallate 100 mg/L, propyl gallate 300 mg/L, J1816 0, NaCitrate 0.90%): 0 | virucidal activity of octyl gallate against HSV-1 (herpes virus (HSV-1); with 60 mg/L of propyl gallate, FIG. 5): marked reinforcement | MIC ([1]; read-out: Octyl gallate MIC, NaCl 4%, isoamyl gallate 100 μg/mL): 0.98 µg/mL | MIC ([1]; read-out: Recrystalized octyl gallate MIC, Dec. 24, 2007, MHA (+0.9% disodium hydrogen citrate), sodium ascorbate 0.5 mg/ml, propyl gallate 300 mg/L): > 100 µg/mL | change of MIC value of octyl gallate by isoamyl gallate ([1]; as the amount of NaCl added (2 to 4%) increases (Table 4)): markedly decreased | effect on bacteria of concomitant use with propyl gallate ([1]; propyl gallate 300 mg/L, except for three strains of bacteria): completely killed
